According to patent US6479435B1, “Diaryl ethers and processes for their preparation and herbicidal and desiccant compositions containing them” (ISK Americas Incorporated, priority 1997, dated 2002):

Tests used:
Type in all cases: in vivo
[1] = tested on: Johnsongrass (Sorghum halepense, SORHA); test: Pre-emerge greenhouse herbicide test, phytotoxicity rating; conditions: 14 days after application, rating scale 0-100
From the text: (§1) A standard greenhouse herbicide activity screening system was used to evaluate the herbicidal efficacy and crop safety of these test compounds. Six broadleaf weed species including redroot pigweed (Amaranthus retroflexus, AMARE), velvetleaf (Abutilon theophrasti, ABUTH), sicklepod (Cassia obtusifolia, CASOB), ivyleaf morningglory (Ipomoea hederacea, IPOHE), lambsquarters (Chenopodium album, CHEAL) and common ragweed (Ambrosia artemisiifolia L., AMBEL) were used as test species. Four grass weed species including green foxtail (Setaria viridis, SETVI), barnyardgrass (Echinochloa crusgalli, ECHCG), Johnsongrass (Sorghum halepense, SORHA), and large crabgrass (Digitaria sanguinalis, DIGSA) were also used. In addition, three crop species, field corn (Zea mays L., var. Dekalb 535, CORN), soybean (Glycine max L., var. Pella 86, SOY), and upland rice (Oryza sp., var.Tebonnet, RICE) were included.
(§2) All plants were grown in 10 cm square plastic pots which were filled with a sandy loam soil mix. For preemerge tests, seeds were planted one day prior to application of the test compounds. Immediately after application, test units of the pre-emerge applications were watered at the soil surface to incorporate the test materials. Subsequently, these test units were bottom-watered.
(§3) All test compounds were dissolved in acetone and applied to the test units in a volume of 187 l/ha. Test materials were applied at rates ranging from 125 g ai/ha to 1000 g ai/ha using a track sprayer equipped with a TJ8001E even flow flat fan spray nozzle. Plants were arranged on a shelf so that the top of the canopy (post-emerge) or top of the soil surface (pre-emerge) was 40-45 cm below the nozzle. Pressurized air was used to force the test solution through the nozzle as it was mechanically advanced (via electrically driven chain drive) over the top of all test plants/pots. This application simulates a typical commercial field herbicide application.
(§4) At 14 days after application of the test materials, phytotoxicity ratings were recorded. A rating scale of 0-100 was used as previously described in Research Methods in Weed Science, 2nd edition, B. Truelove, Ed., Southern Weed Science Society, Auburn University, Auburn, Ala., 1977. Briefly, “0” corresponds to no damage and “100” corresponds to complete death of all plants in the test unit. This scale was used both to determine efficacy against weed species and damage to crop species. Herbicide activity data for various compounds of this invention, which are shown by compound number in Tables 1-9, are shown in Tables 13 and 14.

[2] = tested on: barnyardgrass (Echinochloa crusgalli, ECHCG); test: as above; conditions: 14 days after application, rating scale 0-100
From the text: as §1, §2, §3, §4

[3] = tested on: green foxtail (Setaria viridis, SETVI); test: as above; conditions: 14 days after application, rating scale 0-100
From the text: as §1, §2, §3, §4

[4] = tested on: ivyleaf morningglory (Ipomoea hederacea, IPOHE); test: as above; conditions: 14 days after application, rating scale 0-100
From the text: as §1, §2, §3, §4

[5] = tested on: lambsquarters (Chenopodium album, CHEAL); test: as above; conditions: 14 days after application, rating scale 0-100
From the text: as §1, §2, §3, §4

[6] = tested on: large crabgrass (Digitaria sanguinalis, DIGSA); test: as above; conditions: 14 days after application, rating scale 0-100
From the text: as §1, §2, §3, §4

[7] = tested on: redroot pigweed (Amaranthus retroflexus, AMARE); test: as above; conditions: 14 days after application, rating scale 0-100
From the text: as §1, §2, §3, §4

[8] = tested on: sicklepod (Cassia obtusifolia, CASOB); test: as above; conditions: 14 days after application, rating scale 0-100
From the text: as §1, §2, §3, §4

[9] = tested on: velvetleaf (Abutilon theophrasti, ABUTH); test: as above; conditions: 14 days after application, rating scale 0-100
From the text: as §1, §2, §3, §4

[10] = tested on: field corn (Zea mays L., var. Dekalb 535, CORN); test: Pre-emerge greenhouse test, crop damage rating; conditions: 14 days after application, rating scale 0-100
From the text: as §1, §2, §3, §4

[11] = tested on: upland rice (Oryza sp., var.Tebonnet, RICE); test: Pre-emerge greenhouse test, crop damage rating; conditions: 14 days after application, rating scale 0-100
From the text: as §1, §2, §3, §4

[12] = tested on: soybean (Glycine max L., var. Pella 86, SOY); test: Pre-emerge greenhouse test, crop damage rating; set-up: key to SOY crop damage rating: 0 = no damage, 100 = complete death of all plants; conditions: 14 days after application, rating scale 0-100
From the text: as §1, §2, §3, §4

[13] = tested on: Johnsongrass (Sorghum halepense, SORHA); test: Post-emerge greenhouse herbicide test, phytotoxicity rating; conditions: 14 days after application, scale 0-100
From the text: as §1, §3
(§5) In the post-emerge test, a commercial non-ionic surfactant was also included (0.25% v/v) to enhance wetting of the leaf surfaces Qf target plants at rates ranging from 63 g ai/ha to 1000 g ai/ha. For post-emerge tests, seeds were planted 8-21 days prior to the test to allow emergence and good foliage development prior to application of the test substances. At the time of the post-emerge application, plants of all species were usually at the 2-3 leaf stage of development. Post-emerge test units were always bottom-watered.
as §4

[14] = tested on: barnyardgrass (Echinochloa crusgalli, ECHCG); test: as above; conditions: 14 days after application, scale 0-100
From the text: as §1, §3, §5, §4

[15] = tested on: green foxtail (Setaria viridis, SETVI); test: as above; conditions: 14 days after application, scale 0-100
From the text: as §1, §3, §5, §4

[16] = tested on: ivyleaf morningglory (Ipomoea hederacea, IPOHE); test: as above; conditions: 14 days after application, scale 0-100
From the text: as §1, §3, §5, §4

[17] = tested on: lambsquarters (Chenopodium album, CHEAL); test: as above; conditions: 14 days after application, scale 0-100
From the text: as §1, §3, §5, §4

[18] = tested on: large crabgrass (Digitaria sanguinalis, DIGSA); test: as above; conditions: 14 days after application, scale 0-100
From the text: as §1, §3, §5, §4

[19] = tested on: redroot pigweed (Amaranthus retroflexus, AMARE); test: as above; conditions: 14 days after application, scale 0-100
From the text: as §1, §3, §5, §4

[20] = tested on: sicklepod (Cassia obtusifolia, CASOB); test: as above; conditions: 14 days after application, scale 0-100
From the text: as §1, §3, §5, §4

[21] = tested on: velvetleaf (Abutilon theophrasti, ABUTH); test: as above; conditions: 14 days after application, scale 0-100
From the text: as §1, §3, §5, §4

[22] = tested on: field corn (Zea mays L., var. Dekalb 535, CORN); test: Post-emerge greenhouse test, crop damage rating; conditions: 14 days after application, scale 0-100
From the text: as §1, §3, §5, §4

[23] = tested on: upland rice (Oryza sp., var.Tebonnet, RICE); test: Post-emerge greenhouse test, crop damage rating; conditions: 14 days after application, scale 0-100
From the text: as §1, §3, §5, §4

[24] = tested on: soybean (Glycine max L., var. Pella 86, SOY); test: Post-emerge greenhouse test, crop damage rating; set-up: key to crop damage rating SOY: 0-100 scale: 0 = no damage, 100 = complete death of all plants; conditions: 14 days after application, scale 0-100
From the text: as §1, §3, §5, §4

Compound: Nn1c(C(F)(F)F)cc(=O)n(-c2cc(Oc3cccc(F)n3)c(Cl)cc2F)c1=O [Compound 9-4, 1-Amino-3-[4-chloro-2-fluora-5-(6-fluoro-2-pyridyloxy)phenyl]-6-trifluoromethyl-1,2,3,4-tetrahydropyrimidine-2,4-dione]
- SORHA phytotoxicity rating ([1]; Rate 125 g al/ha): 99
- SORHA phytotoxicity rating ([1]; Rate 500 g al/ha): 100
- ECHCG phytotoxicity rating ([2]; Rate 125 g al/ha): 100
- ECHCG phytotoxicity rating ([2]; Rate 500 g al/ha): 100
- SETVI phytotoxicity rating ([3]; Rate 125 g al/ha): 100
- SETVI phytotoxicity rating ([3]; Rate 500 g al/ha): 100
- IPOHE phytotoxicity rating ([4]; Rate 125 g al/ha): 100
- IPOHE phytotoxicity rating ([4]; Rate 500 g al/ha): 100
- CHEAL phytotoxicity rating ([5]; Rate 125 g al/ha): 100
- CHEAL phytotoxicity rating ([5]; Rate 500 g al/ha): 100
- DIGSA phytotoxicity rating ([6]; Rate 125 g al/ha): 100
- DIGSA phytotoxicity rating ([6]; Rate 500 g al/ha): 100
- AMARE phytotoxicity rating ([7]; Rate 125 g al/ha): 100
- AMARE phytotoxicity rating ([7]; Rate 500 g al/ha): 100
- CASOB phytotoxicity rating ([8]; Rate 125 g al/ha): 60
- CASOB phytotoxicity rating ([8]; Rate 500 g al/ha): 100
- ABUTH phytotoxicity rating ([9]; Rate 125 g al/ha): 100
- ABUTH phytotoxicity rating ([9]; Rate 500 g al/ha): 100
- CORN crop damage rating ([10]; Rate 125 g al/ha): 60
- CORN crop damage rating ([10]; Rate 500 g al/ha): 95
- RICE crop damage rating ([11]; Rate 125 g al/ha): 40
- RICE crop damage rating ([11]; Rate 500 g al/ha): 99
- SOY crop damage rating ([12]; Rate 125 g al/ha): 80
- SOY crop damage rating ([12]; Rate 500 g al/ha): 95
- phytotoxicity rating SORHA ([13]; rate 63 g ai/ha): 70
- phytotoxicity rating SORHA ([13]; rate 500 g ai/ha): 98
- phytotoxicity rating ECHCG ([14]; rate 63 g ai/ha): 70
- phytotoxicity rating ECHCG ([14]; rate 500 g ai/ha): 100
- phytotoxicity rating SETVI ([15]; rate 63 g ai/ha): 30
- phytotoxicity rating SETVI ([15]; rate 500 g ai/ha): 95
- phytotoxicity rating IPOHE ([16]; rate 63 g ai/ha): 100
- phytotoxicity rating IPOHE ([16]; rate 500 g ai/ha): 100
- phytotoxicity rating CHEAL ([17]; rate 63 g ai/ha): 80
- phytotoxicity rating CHEAL ([17]; rate 500 g ai/ha): 100
- phytotoxicity rating DIGSA ([18]; rate 63 g ai/ha): 10
- phytotoxicity rating DIGSA ([18]; rate 500 g ai/ha): 95
- phytotoxicity rating AMARE ([19]; rate 63 g ai/ha): 95
- phytotoxicity rating AMARE ([19]; rate 500 g ai/ha): 100
- phytotoxicity rating CASOB ([20]; rate 63 g ai/ha): 90
- phytotoxicity rating CASOB ([20]; rate 500 g ai/ha): 100
- phytotoxicity rating ABUTH ([21]; rate 63 g ai/ha): 100
- phytotoxicity rating ABUTH ([21]; rate 500 g ai/ha): 100
- crop damage rating CORN ([22]; rate 63 g ai/ha): 40
- crop damage rating CORN ([22]; rate 500 g ai/ha): 80
- crop damage rating RICE ([23]; rate 63 g ai/ha): 50
- crop damage rating RICE ([23]; rate 500 g ai/ha): 70
- crop damage rating SOY ([24]; rate 63 g ai/ha): 95
- crop damage rating SOY ([24]; rate 500 g ai/ha): 100
